These results are taken from patent US8895580B2, “Quinolinone-pyrazolone M1 receptor positive allosteric modulators” (Merck Sharp & Dohme Corp., priority 2009, dated 2014).

For the experiment, the target named is T1, acetylcholine muscarinic M1 receptor (CHOnfat/hM1 cells) (Homo sapiens, UniProt P11229).
T1 construct: expressed in transfected cells; host or cells: CHOnfat cells (CHOnfat/hM1; Geneticin-selected)
T1 sequence (P11229 1-460): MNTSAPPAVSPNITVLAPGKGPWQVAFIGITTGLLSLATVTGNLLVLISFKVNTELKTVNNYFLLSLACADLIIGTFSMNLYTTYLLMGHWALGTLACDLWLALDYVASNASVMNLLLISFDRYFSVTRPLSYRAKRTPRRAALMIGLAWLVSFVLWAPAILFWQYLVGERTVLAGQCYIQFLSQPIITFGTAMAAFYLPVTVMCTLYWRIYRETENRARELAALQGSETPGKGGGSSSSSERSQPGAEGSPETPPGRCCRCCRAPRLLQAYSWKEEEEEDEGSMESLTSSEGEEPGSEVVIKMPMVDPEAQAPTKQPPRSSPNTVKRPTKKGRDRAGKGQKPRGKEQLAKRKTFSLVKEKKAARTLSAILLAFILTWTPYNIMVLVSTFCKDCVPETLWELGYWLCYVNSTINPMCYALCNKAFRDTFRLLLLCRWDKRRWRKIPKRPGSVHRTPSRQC
Description: muscarinic M1 FLIPR intracellular calcium assay (positive allosteric modulation). The experiment is classed as cell-based. Particulars: FLIPR Ca2+, 4 min preincubation, then EC20 acetylcholine (3 nM final), read-out: IP Value (inflection point). On the procedure:
The assay studies the effect of one or several concentrations of test compounds on basal or acetylcholine-stimulated Ca^2+ levels using FLIPR.
Compounds are prepared and subjected to a preincubation period of 4 min. Thereafter, a single EC20 concentration of acetylcholine is added to each well (3 nM final). The intracellular Ca^2+ level of each sample is measured and compared to an acetylcholine control to determine any modulatory activity.
Cells: CHOnfat/hM1, hM2, hM3 or hM4 cells are plated 24 hr before the assay at a density of 18,000 cells/well (100 μL) in a 384 well plate. CHOnfat/hM1 and CHOnfat/hM3 Growth Medium: 90% DMEM (Hi Glucose); 10% HI FBS; 2 mM L-glutamine; 0.1 mM NEAA; Pen-Strep; and 1 mg/ml Geneticin, are added. For M2Gqi5CHOnfat and M4Gqi5CHOnfat cells, an additional 600 ug/ml hygromycin is added.
Equipment: 384 well plate, 1204 addition plate; 96-well Whatman 2 ml Uniplate Incubator, 37° C., 5% CO2; Skatron EMBLA-384 Plate Washer; Multimek Pipetting System; Genesis Freedom 200 System; Mosquito System; Temo Nanoliter Pipetting System; and FLIPR^384 Fluorometric Imaging Plate Reader System are used.
Buffers. Assay Buffer: Hanks Balanced Salt Solution, with 20 mM Hepes, 2.5 mM Probenecid (Sigma P-8761) first dissolved in 1 N NaOH, 1% Bovine Serum Albumin (Sigma A-9647). Dye Loading Buffer: Assay Buffer plus 1% Fetal Bovine Serum and Fluo-4AM/Pluronic Acid Mixture. 2 mM Fluo-4AM ester stock in DMSO (Molecular Probes F-14202) Concentration of 2 μM in buffer for a final concentration of 1 μM in Assay. 20% Pluronic Acid Solution stock, with concentration of 0.04% in Buffer, 0.02% in Assay.
65 μL of 2 mM Fluo-4AM are mixed with 130 μL of 20% Pluronic Acid. The resulting solution and 650 μL FBS is added to the assay buffer for a total volume of 65 mL. Positive Controls: 4-Br-A23187: 10 mM in DMSO; final concentration 10 μM. Acetylcholine: 10 mM in water, working stock at both 20 μM and 30 μM in assay buffer, final concentration of 10 μM. This is used to check the maximum stimulation of the CHOK1/hM1 cells, 20 μM (2×) acetylcholine is added in the preincubation part of the assay, and the 30 μM (3×) stock is added in the second part. (EC20)Acetylcholine: 10 mM in water, working stock of 9 nM (3×), and final concentration in assay is 3 nM. This is used after the preincubation with test compounds. Addition of the EC20 Acetylcholine to each well with a test compound will ascertain any modulator activity. 24 wells contain 3 nM Acetylcholine alone as a control.
Determining Activity of Putative Compounds:
Screening Plate Compounds are titrated in 96-well plates (columns 2-11), 100% DMSO, started at a concentration of 15 mM (150× stock concentration), and 3-fold serial dilutions using Genesis Freedom200 System. Four 96-well plates are combined into a 384-well plate using Mosquito Nanoliter Pipetting System by transferring 1 μl of serial diluted compounds to each well, and 1 mM acetylcholine (100× stock concentration) were added as a control. Using Temo, 49 μl assay buffer is added to each well of the 384-well plate right before assay.
In a 96-well Whatman 2 ml Uniplate, 9 nM Acetylcholine (3×) is pipetted into wells corresponding to the screening compounds, and into control wells. The 30 μM acetylcholine control (3×) is added into control wells, and the 3× agonist plate is transferred into a 384 well plate.
Cells are washed three times with 100 μl, of buffer, leaving 30 μl of buffer in each well. Using Multimek, 30 μL of Dye Loading Buffer is added into each well and incubated at 37° C., 5% CO2 for up to one hr.
After 60 min, the cells are washed three times with 100 μl of buffer, leaving 30 μl, of buffer in each well. The cell plate, screening plate, and agonist addition plates are placed on the platform in the FLIPR and the door closed. A signal test to check background fluorescence and basal fluorescence signal is performed. Laser intensity is adjusted if necessary. […]

Each structure is given as a SMILES string. pEC50: −log10 of the molar value.

Turning to `CCN(CC)C(=O)Cn1nc2c3ccccc3n(Cc3ccc(-n4cccn4)cc3)cc-2c1=O` [Example 690, N,N-Diethyl-2-(3-oxo-5-{[4-(1H-pyrazol-1-yl)phenyl]methyl}-3,5-dihydro-2H-pyrazol[4,3-c]quinolin-2-yl)acetamide], the pEC50 was 5.90.
